Measured values as given in patent US7718653B2, “Pyrimidine derivatives for inhibiting Eph receptors” (AstraZeneca AB, priority 2007, dated 2010).
Where two headings read alike, the source gives them in different places.

What was measured:
recombinant EphB4 = target: T1, recombinant EphB4 (Homo sapiens, UniProt P54760); test: In vitro EphB4 enzyme assay (Alphascreen, phosphorylation of biotin-poly-GAT); assay type: biochemical; settings: * = tested once only, read-out: EphB4 enzyme assay Mean IC50 value
T1 construct: amino acids 563-987; Swiss-Prot Acc; No. P54760; purchased ProQinase GmbH 0178-0000-3
T1 sequence (P54760 563-987): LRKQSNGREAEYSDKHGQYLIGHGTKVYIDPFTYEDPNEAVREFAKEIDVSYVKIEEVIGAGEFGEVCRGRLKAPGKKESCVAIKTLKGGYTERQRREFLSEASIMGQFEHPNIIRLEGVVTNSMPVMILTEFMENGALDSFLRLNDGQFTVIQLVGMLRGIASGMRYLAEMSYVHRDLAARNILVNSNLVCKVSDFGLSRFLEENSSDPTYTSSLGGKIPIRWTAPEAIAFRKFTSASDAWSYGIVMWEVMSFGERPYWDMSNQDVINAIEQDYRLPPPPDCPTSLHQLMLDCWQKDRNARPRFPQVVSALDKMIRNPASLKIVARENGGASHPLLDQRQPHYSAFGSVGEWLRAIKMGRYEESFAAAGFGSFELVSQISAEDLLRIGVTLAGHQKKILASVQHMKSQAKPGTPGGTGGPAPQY
Method: A) In vitro EphB4 Enzyme Assay
(§1) This assay detects inhibitors of EphB4-mediated phosphorylation of a polypeptide substrate using Alphascreen™ luminescence detection technology. Briefly, recombinant EphB4 was incubated with a biotinylated-polypeptide substrate (biotin-poly-GAT) in presence of magnesium-ATP. The reaction was stopped by addition of EDTA, together with streptavidin-coated donor beads which bind the biotin-substrate containing any phosphorylated tyrosine residues. Anti-phosphotyrosine antibodies present on acceptor beads bind to phosphorylated substrate, thus bringing the donor & acceptor beads into close proximity. Subsequent excitation of the donor beads at 680 nm generated singlet oxygen species that interact with a chemiluminescer on the acceptor beads, leading to light emission at 520-620 nm. The signal intensity is directly proportional to the level of substrate phosphorylation and thus inhibition is measured by a decrease in signal.
Aqueous Compound Preparation:
Acoustic Compound Preparation:
To ensure that each well contained a total of 120 nl DMSO the wells were all backfilled as required. […] The test range of compounds was 100× the required final concentration.
Assay plates were then incubated at room temperature for 1 hour.
For assays using compounds prepared via acoustic dispensing, the assay mix was adjusted such that the final assay volume of 12 ul contained the same concentration of reagent as 10 ul of assay mix used when aqueous compounds were tested.
The plates were sealed under natural lighting conditions, wrapped in aluminium foil and incubated in the dark for a further 20 hours.
The resulting assay signal was determined on the Perkin Elmer EnVision plate reader. The minimum value was subtracted from all values, and the signal plotted against compound concentration to generate IC50 data. The method used to generate the compound dilutions was recorded with the IC50 value in the database.

recombinant EphA2 = target: T2, recombinant EphA2 (Homo sapiens, UniProt P29317); test: In vitro EphA2 enzyme assay (Alphascreen, phosphorylation of biotin-poly-GAT); assay type: biochemical
T2 construct: amino acids 591-976; Swiss-Prot Acc; No. P29317; purchased ProQinase GmbH 0368-0000-1
T2 sequence (P29317 591-976): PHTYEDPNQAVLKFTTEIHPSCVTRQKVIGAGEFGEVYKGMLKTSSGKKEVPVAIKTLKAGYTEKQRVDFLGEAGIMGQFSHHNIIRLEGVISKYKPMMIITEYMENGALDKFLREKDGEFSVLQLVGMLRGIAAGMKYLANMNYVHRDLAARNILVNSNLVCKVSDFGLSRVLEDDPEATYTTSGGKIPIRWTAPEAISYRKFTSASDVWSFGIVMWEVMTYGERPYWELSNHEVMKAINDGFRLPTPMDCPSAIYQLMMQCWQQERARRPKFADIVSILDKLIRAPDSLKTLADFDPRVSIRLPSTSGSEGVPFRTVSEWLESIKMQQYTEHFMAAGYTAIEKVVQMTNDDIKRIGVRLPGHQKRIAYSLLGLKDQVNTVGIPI
Method: C) In vitro EphA2 Enzyme Assay
as §1, with “EphA2-mediated” for “EphB4-mediated”, “EphA2” for “EphB4”
Test compounds were prepared as 10 mM stock solutions in DMSO (Sigma-Aldrich Company Ltd, Gillingham, Dorset SP8 4XT Catalogue No. 154938) and serially diluted with 5% DMSO to give a range of test concentrations at 6× the required final concentration. […]
The resulting assay signal was determined on the Perkin Elmer EnVision plate reader. […]

[1] = Method of compound preparation: Genesis (aqueous compound preparation)
[2] = Method of compound preparation: Echo (acoustic dispensing)

SMILES	IC50 (recombinant EphB4; [1]) [µM]	IC50 (recombinant EphB4; [2]) [µM]	IC50 (recombinant EphA2) [µM]
CN(c1ccnc(Nc2cc(N3CCOCC3)nc(N3CCOCC3)c2)n1)c1c(Cl)ccc2c1OCO2 [Example 2, N4-(5-chlorobenzo[d][1,3]dioxol-4-yl)-N2-(2,6-dimorpholinopyridin-4-yl)-N4-methylpyrimidine-2,4-diamine]	0.605	–	–
CN(c1ccnc(Nc2cc(Cl)nc(N3CCOCC3)c2)n1)c1cccc2[nH]ncc12 [Example 8, N-(2-chloro-6-morpholin-4-yl-pyridin-4-yl)-N′-(1H-indazol-4-yl)-N′-methyl-pyrimidine-2,4-diamine]	0.445	0.004	–
Cc1nc(Nc2nccc(Nc3c(Cl)ccc4c3OCO4)n2)cc(N2CCN(C)CC2)n1 [Example 12, N′-(5-chloro-1,3-benzodioxol-4-yl)-N-[2-methyl-6-(4-methylpiperazin-1-yl)pyrimidin-4-yl]pyrimidine-2,4-diamine]	6.44	–	–
CN(c1ccnc(Nc2ccnc(N3CCOCC3)c2)n1)c1cccc2[nH]ncc12 [Example 4, N′-(1H-indazol-4-yl)-N′-methyl-N-(2-morpholin-4-ylpyridin-4-yl)pyrimidine-2,4-diamine]	0.146	0.003	–
CN(c1ccnc(Nc2cc(Cl)cc(N3CCOCC3)n2)n1)c1cccc2[nH]ncc12 [Example 6, N-(4-chloro-6-morpholin-4-yl-pyridin-2-yl)-N′-(1H-indazol-4-yl)-N′-methyl-pyrimidine-2,4-diamine]	0.973	0.007	–
Clc1ccc2c(c1Nc1ccnc(Nc3cc(N4CCOCC4)nc(N4CCOCC4)c3)n1)OCO2 [Example 1, N4-(5-chlorobenzo[d][1,3]dioxol-4-yl)-N2-(2,6-dimorpholinopyridin-4-yl)pyrimidine-2,4-diamine]	0.501	–	–
Clc1ccc2c(c1Nc1ccnc(Nc3cccc(N4CCOCC4)n3)n1)OCO2 [Example 10, N′-(5-chloro-1,3-benzodioxol-4-yl)-N-(6-morpholino-2-pyridyl)pyrimidine-2,4-diamine]	0.817	0.064	0.566
Clc1ccc2c(c1Nc1ccnc(Nc3cc(N4CCOCC4)ccn3)n1)OCO2 [Example 9, N′-(5-chloro-1,3-benzodioxol-4-yl)-N-(4-morpholino-2-2pyridyl)pyrimidine-2,4-diamine]	0.17	0.052	0.131
